Source: US9422285B2, “Substituted pyrazolo[1,5-A]-pyridine-3-carboxamides and use thereof” (Bayer Pharma Aktiengesellschaft, priority 2014, dated 2016)

Target: T1, recombinant guanylate cyclase reporter cell line (Rattus norvegicus, UniProt P19686+P20595)
T1 construct: expressed in transfected cells
T1 sequence (P19686 1-690): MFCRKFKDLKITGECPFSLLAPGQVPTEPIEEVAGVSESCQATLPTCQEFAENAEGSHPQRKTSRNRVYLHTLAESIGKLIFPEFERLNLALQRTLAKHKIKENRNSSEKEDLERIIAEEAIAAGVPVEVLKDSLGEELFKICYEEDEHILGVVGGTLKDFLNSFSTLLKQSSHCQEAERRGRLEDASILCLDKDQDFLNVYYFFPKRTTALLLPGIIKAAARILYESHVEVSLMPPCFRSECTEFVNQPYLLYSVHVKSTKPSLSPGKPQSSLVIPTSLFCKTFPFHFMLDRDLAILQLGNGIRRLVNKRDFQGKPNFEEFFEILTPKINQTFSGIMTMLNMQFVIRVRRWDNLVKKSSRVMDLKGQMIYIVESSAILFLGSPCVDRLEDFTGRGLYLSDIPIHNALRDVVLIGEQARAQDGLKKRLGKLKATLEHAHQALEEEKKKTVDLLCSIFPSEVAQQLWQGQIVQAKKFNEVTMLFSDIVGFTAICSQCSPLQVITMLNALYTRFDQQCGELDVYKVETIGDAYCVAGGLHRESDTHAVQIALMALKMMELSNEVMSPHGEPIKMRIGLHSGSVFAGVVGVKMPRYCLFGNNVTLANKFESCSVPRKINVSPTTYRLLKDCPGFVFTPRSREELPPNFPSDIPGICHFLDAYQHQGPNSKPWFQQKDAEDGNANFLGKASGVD
T1 sequence (P20595 1-619): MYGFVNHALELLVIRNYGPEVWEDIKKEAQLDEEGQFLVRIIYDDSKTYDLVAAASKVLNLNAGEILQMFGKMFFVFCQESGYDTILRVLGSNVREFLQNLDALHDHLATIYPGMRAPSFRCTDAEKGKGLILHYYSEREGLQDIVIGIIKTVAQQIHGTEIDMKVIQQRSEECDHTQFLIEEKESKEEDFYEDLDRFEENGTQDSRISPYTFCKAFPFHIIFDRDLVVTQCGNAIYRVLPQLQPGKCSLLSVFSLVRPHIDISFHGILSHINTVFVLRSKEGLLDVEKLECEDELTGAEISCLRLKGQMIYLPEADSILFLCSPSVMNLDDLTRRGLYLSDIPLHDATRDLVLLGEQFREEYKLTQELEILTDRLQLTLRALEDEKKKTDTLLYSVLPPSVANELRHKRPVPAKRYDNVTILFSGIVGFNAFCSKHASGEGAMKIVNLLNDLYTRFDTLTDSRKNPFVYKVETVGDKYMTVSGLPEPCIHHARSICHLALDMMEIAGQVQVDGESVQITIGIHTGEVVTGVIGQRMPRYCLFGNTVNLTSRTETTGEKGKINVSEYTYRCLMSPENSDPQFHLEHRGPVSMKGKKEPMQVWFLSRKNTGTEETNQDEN
Experiment: Effect on a recombinant guanylate cyclase reporter cell line (B-2)
Format: cell-based
Settings: in some cases mean values for individual determinations
Method: B-2. Effect on a Recombinant Guanylate Cyclase Reporter Cell Line
The cellular effect of the inventive compounds is determined using a recombinant guanylate cyclase reporter cell line, as described in F. Wunder et al., Anal. Biochem. 339, 104-112 (2005).
Representative MEC values (MEC=minimum effective concentration) for the inventive compounds are shown in the table below (in some cases as mean values for individual determinations): […]

Row | MEC (minimum effective concentration) [µM] | Structure (SMILES)
1 | 0.3 | Cc1cc(OCc2c(F)cccc2F)n2nc(C)c(C(=O)NC(C#N)c3ccc(Cl)cc3)c2c1 (racemic) [Example 134, rac-N-[(4-Chlorophenyl)(cyano)methyl]-7-[(2,6-difluorobenzyl)oxy]-2,5-dimethylpyrazolo[1,5-a]pyridine-3-carboxamide]
2 | 10 | Cc1cc(OCc2c(F)cccc2F)n2nc(C)c(C(=O)NCC(N)c3cnn(C)c3)c2c1 (racemic) [Example 136, rac-N-[2-Amino-2-(1-methyl-1H-pyrazol-4-yl)ethyl]-7-[(2,6-difluorobenzyl)oxy]-2,5-dimethylpyrazolo[1,5-a]pyridine-3-carboxamide]
3 | 1.0 | Cc1ccc2c(c1)OC(C)(C)CC2NC(=O)c1c(C)nn2c(OCc3c(F)cccc3F)cc(C)cc12 (racemic) [Example 137, rac-7-[(2,6-Difluorobenzyl)oxy]-2,5-dimethyl-N-(2,2,7-trimethyl-3,4-dihydro-2H-chromen-4-yl)pyrazolo[1,5-a]pyridine-3-carboxamide]
4 | 0.1 | Cc1cc(OCc2c(F)cccc2F)n2nc(C)c(C(=O)NC3CCCc4ccccc43)c2c1 (racemic) [Example 138, rac-7-[(2,6-Difluorobenzyl)oxy]-2,5-dimethyl-N-(1,2,3,4-tetrahydronaphthalen-1-yl)pyrazolo[1,5-a]pyridine-3-carboxamide]
5 | 1.0 | Cc1cc(OCc2c(F)cccc2F)n2nc(C)c(C(=O)NC3CCCc4c(N)cccc43)c2c1 (racemic) [Example 139, rac-N-(5-Amino-1,2,3,4-tetrahydronaphthalen-1-y1)-74(2,6-difluorobenzyl)oxy]-2,5-dimethylpyrazolo[1,5-a]pyridine-3-carboxamide]
6 | 0.3 | Cc1cc(OCc2c(F)cccc2F)n2nc(C)c(C(=O)NC3CCOc4c(C#N)cccc43)c2c1 (racemic) [Example 140, rac-N-(8-Cyano-3,4-dihydro-2H-chromen-4-yl)-7-[(2,6-difluorobenzyl)oxy]-2,5-dimethylpyrazolo[1,5-a]pyridine-3-carboxamide]
7 | 3.0 | C=Cc1cccc(C(N)CNC(=O)c2c(C)nn3c(OCc4c(F)cccc4F)cc(C)cc23)c1 (racemic) [Example 141, rac-N-[2-Amino-2-(3-vinylphenyl)ethyl]-7-[(2,6-difluorobenzyl)oxy]-2,5-dimethylpyrazolo[1,5-a]pyridine-3-carboxamide]
8 | 10 | Cc1cc(OCc2c(F)cccc2F)n2nc(C)c(C(=O)NCC3CNCCO3)c2c1 (racemic) [Example 142, rac-7-[(2,6-Difluorobenzyl)oxy]-2,5-dimethyl-N-(morpholin-2-ylmethyl)pyrazolo[1,5-a]pyridine-3-carboxamide]
9 | 1.0 | Cc1cc(OCc2c(F)cccc2F)n2nc(C)c(C(=O)NC3CCC(C)(C)c4ccccc43)c2c1 (racemic) [Example 145, rac-7-[(2,6-Difluorobenzyl)oxy]-N-(4,4-dimethyl-1,2,3,4-tetrahydronaphthalen-1-yl)-2,5-dimethylpyrazolo[1,5-a]pyridine-3-carboxamide]
10 | 1.0 | COc1ccc2c(c1)C(NC(=O)c1c(C)nn3c(OCc4c(F)cccc4F)cc(C)cc13)CCC2 (racemic) [Example 146, rac-7-[(2,6-Difluorobenzyl)oxy]-N-(7-methoxy-1,2,3,4-tetrahydronaphthalen-1-yl)-2,5-dimethylpyrazolo[1,5-a]pyridine-3-carboxamide]
11 | 0.3 | Cc1cc(OCc2c(F)cccc2F)n2nc(C)c(C(=O)NC3CCOc4c(Cl)cccc43)c2c1 (racemic) [Example 147, rac-N-(8-Chloro-3,4-dihydro-2H-chromen-4-yl)-7-[(2,6-difluorobenzyl)oxy]-2,5-dimethylpyrazolo[1,5-a]pyridine-3-carboxamide]
12 | 1.0 | Cc1cc(OCc2c(F)cccc2F)n2nc(C)c(C(=O)NC3CCOc4c(C)cc(F)cc43)c2c1 (racemic) [Example 148, rac-7-[(2,6-Difluorobenzyl)oxy]-N-(6-fluoro-8-methyl-3,4-dihydro-2H-chromen-4-yl)-2,5-dimethylpyrazolo[1,5-a]pyridine-3-carboxamide]
13 | 0.3 | Cc1cc(OCc2c(F)cccc2F)n2nc(C)c(C(=O)NC3CCCc4cc(F)ccc43)c2c1 (racemic) [Example 150, rac-7-[(2,6-Difluorobenzyl)oxy]-N-(6-fluoro-1,2,3,4-tetrahydronaphthalen-1-yl)-2,5-dimethylpyrazolo[1,5-a]pyridine-3-carboxamide]
14 | 0.3 | CSCCC(N)CNC(=O)c1c(C)nn2c(OCc3c(F)cccc3F)cc(C)cc12 (racemic) [Example 156, rac-N-[2-Amino-4-(methylsulphanyl)butyl]-7-[(2,6-difluorobenzyl)oxy]-2,5-dimethylpyrazolo[1,5-a]pyridine-3-carboxamide]
15 | 1.0 | CCCC(C)(N)CNC(=O)c1c(C)nn2c(OCc3cccc(F)c3F)cc(C)cc12 (racemic) [Example 158, rac-N-(2-Amino-2-methylpentyl)-7-[(2,3-difluorobenzyl)oxy]-2,5-dimethylpyrazolo[1,5-a]pyridine-3-carboxamide]
16 | 3.0 | CCCC(C)(N)CNC(=O)c1c(C)nn2c(OCC3CCCCC3)cc(C)cc12 (racemic) [Example 159, rac-N-(2-Amino-2-methylpentyl)-7-(cyclohexylmethoxy)-2,5-dimethylpyrazolo[1,5-a]pyridine-3-carboxamide]
17 | 3.0 | CCCC(C)(N)CNC(=O)c1c(C)nn2c(OCc3c(F)ccc(OC)c3F)cc(C)cc12 (racemic) [Example 161, rac-N-(2-Amino-2-methylpentyl)-7-[(2,6-difluoro-3-methoxybenzyl)oxy]-2,5-dimethylpyrazolo[1,5-a]pyridine-3-carboxamide]
18 | 3.0 | CCCC(C)(N)CNC(=O)c1c(C)nn2c(OCc3c(F)cccc3F)cccc12 (racemic) [Example 163, rac-N-(2-Amino-2-methylpentyl)-7-[(2,6-difluorobenzyl)oxy]-2-methylpyrazolo[1,5-a]pyridine-3-carboxamide]
19 | 1.0 | CCCC(C)(N)CNC(=O)c1c(C)nn2c(OCc3c(F)cccc3Cl)cc(C)cc12 (racemic) [Example 164]
20 | 10 | CCCC(C)(N)CNC(=O)c1c(C)nn2c(OCc3ncccc3F)cc(C)cc12 (racemic) [Example 166, rac-N-(2-Amino-2-methylpentyl)-7-[(3-fluoropyridin-2-yl)methoxy]-2,5-dimethylpyrazolo[1,5-a]pyridine-3-carboxamide]
21 | 3.0 | CCCC(C)(N)CNC(=O)c1c(C)nn2c(OCc3c(F)cccc3F)cc(C3CC3)cc12 (racemic) [Example 167, rac-N-(2-Amino-2-methylpentyl)-5-cyclopropyl-7-[(2,6-difluorobenzyl)oxy]-2-methylpyrazolo[1,5-a]pyridine-3-carboxamide]
22 | 1.0 | CCCC(C)(N)CNC(=O)c1c(C)nn2c(OCc3c(F)cccc3F)cc(OC)cc12 (racemic) [Example 171, rac-N-(2-Amino-2-methylpentyl)-7-[(2,6-difluorobenzyl)oxy]-5-methoxy-2-methylpyrazolo[1,5-a]pyridine-3-carboxamide]

Row | Structure (SMILES) | MEC (minimum effective concentration) [µM]
23 | CCCC(C)(N)CNC(=O)c1c(C)nn2c(OCCC(C)C)cc(C)cc12 (racemic) [Example 160, rac-N-(2-Amino-2-methylpentyl)-2,5-dimethyl-7-(3-methylbutoxy)pyrazolo[1,5-a]pyridine-3-carboxamide] | 3.0
